Experimental data reported in patent US10849854B2, “Process for preparing a composition comprising a high concentration of one or more avermectins” (GALDERMA SA, priority 2015, dated 2020).

Test: Solubility of ivermectin in propylene glycol/oleyl alcohol (1/1) solubilizing medium
Format: physicochemical
Settings: mixed propylene glycol/oleyl alcohol (1/1) solubilizing medium
From the text: Although these prior attempts have allowed formulating ivermectin in emulsions which remain stable despite temperature and/or pH variations, it has been observed that the amount of ivermectin that could be introduced into these emulsions was limited. Specifically, at most 33% by weight of ivermectin can be fully dissolved in a mixed propylene glycol/oleyl alcohol (1/1) solubilizing medium. Beyond this concentration, ivermectin tends to crystallize in the active phase before the emulsion is prepared and/or in the resulting emulsion, optionally when subjected to freeze/thaw cycles. Increasing the amount of glycols in the emulsion would raise other issues, since the emulsion stability would be detrimentally affected and the emulsion would become too sticky to be commercially acceptable. Therefore, from a practical point of view, it has not been possible so far to formulate emulsions comprising 2% or more by weight of ivermectin, which remains fully dissolved ivermectin over the time.

Substance: ivermectin
- Amount of ivermectin that can be fully dissolved: at most 33 % by weight
